Positions count from the first letter of the chain named. Several values for one entry are separate records, joined by “and”; a condition that tells them apart may be missing. Equal entries are not always repeated.
Experiments:
RyR1-W881A R12 = molecular target: T1, RyR1-W881A R12 (Homo sapiens, UniProt P21817, W881A); test: ITC, RyR1 R12 W881A; type: binding; settings: RyR1-W881A R12, no nucleotide
T1 construct: RyR1 854–1054, RyR2 865–1065, RyR3 853–1053; made in house; host or cells: E. coli BL21 (DE3)
T1 sequence (P21817 854-1054 W881A): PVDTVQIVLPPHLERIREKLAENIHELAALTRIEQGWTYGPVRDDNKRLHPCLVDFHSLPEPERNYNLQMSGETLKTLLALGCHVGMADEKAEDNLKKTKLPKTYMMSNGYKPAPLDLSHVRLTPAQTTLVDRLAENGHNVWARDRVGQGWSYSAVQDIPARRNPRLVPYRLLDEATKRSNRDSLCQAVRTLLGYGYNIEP
Method: (§1) The plasmids were subsequently transformed into E. coli BL21 (DE3) cells (NEB, USA) and cultured in Luria-Bertani (LB) media at 37 °C. Protein expression was induced with 0.4 mM isopropyl β-D-thiogalactoside (IPTG) when the optical density (OD)600 reached ~0.8, followed by incubation at 18 °C for 12 h. The cells were harvested via centrifugation at 5,000 × g for 15 min at 4 °C and homogenized in Buffer A (10 mM HEPES, pH 7.4, 250 mM KCl) supplemented with 25 µg/mL DNaseI, 25 µg/mL lysozyme, 1 mM phenylmethylsulfonyl fluoride (PMSF), and 20 mM imidazole. The homogenate was centrifuged at 12,000 × g for 45 min, and the supernatant was filtered through a syringe filter (0.22 µm).
(§2) Purified R12 domain protein from the three RyR isoforms, fused with hexahistidine-tagged MBP (HMT-R12) was dialyzed overnight at 4 °C in ITC buffer (200 mM HEPES, pH 7.4, 150 mM KCl). ITC experiments were performed using a PEAQ-ITC instrument (Malvern, UK) at 25 °C with a stirring speed of 750 rpm. […] For the ternary binding experiments, 500 μM or 5 mM AMP-PCP/ADP was preincubated with both the titrants and titrates. […] The data was fit to a one-site fitting model after background buffer subtraction. The RyR1 R12 mutants were generated using a QuikChange mutagenesis kit (Stratagene) according to the manufacturer’s protocol, with primer sequences listed in Supplementary Table 3.

RyR1 R2163C = molecular target: T2, RyR1 R2163C (Oryctolagus cuniculus, UniProt P11716, R2163C); test: Time-lapse [Ca2+]ER measurement, HEK293 cells expressing RyR1 R2163C; type: cell-based; settings: for ER luminal [Ca2+] change (F/F0): Fig. 1B source data, single replicates
T2 construct: expressed in transfected cells
Method: HEK293 cells stably expressing R-CEPIA1er and RyRs (WT RyR1, RyR1-W881A, RyR1-W995A, RyR1-R2163C, and WT RyR2)[26],[27] were used in this study. Briefly, the cells were seeded at a density of 2 × 10⁴ cells/well in a 96-well black, clear-bottom plate (Corning). Doxycycline (2 µg/mL) was added 12 h after seeding, and the medium was replaced 24 h later with HEPES-buffered Krebs solution (5 mM HEPES, pH 7.4; 140 mM NaCl; 5 mM KCl; 2 mM CaCl₂; 1 mM MgCl₂; and 11 mM glucose). Fluorescence measurements were conducted using a FlexStation 3 fluorometer (Molecular Devices) at 37 °C. The R-CEPIA1er was excited at 560 nm, emitted at 610 nm, and captured every 10 seconds over 300 seconds. […] The fluorescence changes (F/F₀) were calculated by dividing the average fluorescence of the last 100 seconds (F) by that of the first 100 seconds (F₀). All measurements were performed in triplicate.

R12 domain of RyR3 = molecular target: T3, R12 domain of RyR3 (Homo sapiens, UniProt Q15413); test: ITC, R12 domain of RyR3; type: binding
T3 construct: RyR1 854–1054, RyR2 865–1065, RyR3 853–1053; made in house; host or cells: E. coli BL21 (DE3)
T3 sequence (Q15413 853-1053): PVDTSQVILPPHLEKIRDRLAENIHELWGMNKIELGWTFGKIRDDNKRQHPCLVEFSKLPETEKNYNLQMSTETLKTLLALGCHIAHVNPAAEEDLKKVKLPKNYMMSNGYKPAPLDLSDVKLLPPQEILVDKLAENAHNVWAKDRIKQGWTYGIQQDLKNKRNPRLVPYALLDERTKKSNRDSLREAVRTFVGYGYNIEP
Method: as §1, §2

R12 domain of RyR1 = molecular target: T4, R12 domain of RyR1 (Homo sapiens, UniProt P21817); test: ITC, R12 domain of RyR1; type: binding
T4 construct: RyR1 854–1054, RyR2 865–1065, RyR3 853–1053; made in house; host or cells: E. coli BL21 (DE3)
T4 sequence (P21817 854-1054): T1 sequence (P21817 854-1054 W881A) with A28W
Method: as §1, §2

O=C1CN(/N=C/c2ncc(-c3ccc(Br)cc3)o2)C(=O)N1 [AZU, Azumolene]
Kd (RyR1-W881A R12): 358000 ± 138000 nM
No of Sites (N) (RyR1-W881A R12): 1.04 ± 0.35
ΔH (RyR1-W881A R12): -35.60 kcal/mol
−TΔS (RyR1-W881A R12): 30.90 kcal/mol
ER luminal [Ca2+] change (F/F0) (RyR1 R2163C; concentration 0.001 (unit not given)): 0.9854 and 0.9883 and 0.9973
ER luminal [Ca2+] change (F/F0) (RyR1 R2163C; concentration 0.01 (unit not given)): 0.9658 and 0.9819 and 0.982
ER luminal [Ca2+] change (F/F0) (RyR1 R2163C; concentration 0.05 (unit not given)): 1.099 and 1.026 and 0.9992
ER luminal [Ca2+] change (F/F0) (RyR1 R2163C; concentration 0.1 (unit not given)): 1.103 and 1.117 and 1.012
ER luminal [Ca2+] change (F/F0) (RyR1 R2163C; concentration 0.5 (unit not given)): 1.22 and 1.241 and 1.23
ER luminal [Ca2+] change (F/F0) (RyR1 R2163C; concentration 1 (unit not given)): 1.3399 and 1.372 and 1.356
ER luminal [Ca2+] change (F/F0) (RyR1 R2163C; concentration 5 (unit not given)): 1.6271 and 1.651 and 1.748
ER luminal [Ca2+] change (F/F0) (RyR1 R2163C; concentration 10 (unit not given)): 1.557 and 1.7194 and 1.724
ER luminal [Ca2+] change (F/F0) (RyR1 R2163C; concentration 50 (unit not given)): 1.618 and 1.707 and 1.756
ER luminal [Ca2+] change (F/F0) (RyR1 R2163C; concentration 100 (unit not given)): 1.541 and 1.665 and 1.689
IC50 (RyR1 R2163C; HEK293 cells stably expressing RyR1 R2163C, ER Ca2+ fluorescence, dose-dependent): 410 nM
Kd (R12 domain of RyR3; RyR3 R12 + 500 µM ADP): 362 ± 86 nM
No of Sites (N) (R12 domain of RyR3; RyR3 R12 + 500 µM ADP): 0.613 ± 0.82
ΔH (R12 domain of RyR3; RyR3 R12 + 500 µM ADP): -6.16 ± 0.15 kcal/mol
−TΔS (R12 domain of RyR3; RyR3 R12 + 500 µM ADP): -2.63 kcal/mol
Kd (R12 domain of RyR3; RyR3 R12 + 500 µM AMP-PCP): 111 ± 25 nM
No of Sites (N) (R12 domain of RyR3; RyR3 R12 + 500 µM AMP-PCP): 0.760 ± 0.45
ΔH (R12 domain of RyR3; RyR3 R12 + 500 µM AMP-PCP): -7.90 ± 0.11 kcal/mol
−TΔS (R12 domain of RyR3; RyR3 R12 + 500 µM AMP-PCP): -1.59 kcal/mol
Kd (R12 domain of RyR3; RyR3 R12 + 5 mM ADP): 52 ± 13 nM
No of Sites (N) (R12 domain of RyR3; RyR3 R12 + 5 mM ADP): 0.813 ± 0.48
ΔH (R12 domain of RyR3; RyR3 R12 + 5 mM ADP): -7.35 ± 0.11 kcal/mol
−TΔS (R12 domain of RyR3; RyR3 R12 + 5 mM ADP): -2.59 kcal/mol
Kd (R12 domain of RyR3; RyR3 R12 + 5 mM AMP-PCP): 48 ± 21 nM
No of Sites (N) (R12 domain of RyR3; RyR3 R12 + 5 mM AMP-PCP): 0.854 ± 0.21
ΔH (R12 domain of RyR3; RyR3 R12 + 5 mM AMP-PCP): -7.80 ± 0.15 kcal/mol
−TΔS (R12 domain of RyR3; RyR3 R12 + 5 mM AMP-PCP): -2.18 kcal/mol
No of Sites (N) (R12 domain of RyR3; RyR3 R12, no nucleotide): 1.02 ± 0.41
ΔH (R12 domain of RyR3; RyR3 R12, no nucleotide): -80 kcal/mol
−TΔS (R12 domain of RyR3; RyR3 R12, no nucleotide): 75.40 kcal/mol
Kd (R12 domain of RyR3; RyR3 R12, no nucleotide, ITC 25 °C): 394000 ± 7050 nM
Kd (R12 domain of RyR1; RyR1 R12 + 500 µM ADP): 241 ± 31 nM
No of Sites (N) (R12 domain of RyR1; RyR1 R12 + 500 µM ADP): 0.652 ± 0.16
ΔH (R12 domain of RyR1; RyR1 R12 + 500 µM ADP): -7.92 ± 0.91 kcal/mol
−TΔS (R12 domain of RyR1; RyR1 R12 + 500 µM ADP): -1.11 kcal/mol
No of Sites (N) (R12 domain of RyR1; RyR1 R12 + 500 µM AMP-PCP): 0.904 ± 0.52
ΔH (R12 domain of RyR1; RyR1 R12 + 500 µM AMP-PCP): -2.99 ± 0.47 kcal/mol
−TΔS (R12 domain of RyR1; RyR1 R12 + 500 µM AMP-PCP): -6.48 kcal/mol
Kd (R12 domain of RyR1; RyR1 R12 + 5 mM ADP): 60 ± 12 nM
No of Sites (N) (R12 domain of RyR1; RyR1 R12 + 5 mM ADP): 0.489 ± 0.28
ΔH (R12 domain of RyR1; RyR1 R12 + 5 mM ADP): -8.45 ± 0.94 kcal/mol
−TΔS (R12 domain of RyR1; RyR1 R12 + 5 mM ADP): -1.40 kcal/mol
Kd (R12 domain of RyR1; RyR1 R12 + 5 mM AMP-PCP): 46 ± 14 nM
No of Sites (N) (R12 domain of RyR1; RyR1 R12 + 5 mM AMP-PCP): 0.718 ± 0.50
ΔH (R12 domain of RyR1; RyR1 R12 + 5 mM AMP-PCP): -7.75 ± 0.12 kcal/mol
−TΔS (R12 domain of RyR1; RyR1 R12 + 5 mM AMP-PCP): -2.26 kcal/mol
No of Sites (N) (R12 domain of RyR1; RyR1 R12, no nucleotide): 0.810 ± 0.21
ΔH (R12 domain of RyR1; RyR1 R12, no nucleotide): -80 kcal/mol
−TΔS (R12 domain of RyR1; RyR1 R12, no nucleotide): 75.60 kcal/mol
Kd (R12 domain of RyR1; RyR1 R12, no nucleotide, ITC 25 °C): 595000 nM and 596000 nM
